Test results as given in patent US6337325B1, “Combined preparation for the therapy of immune diseases” (Hoechst Aktiengesellschaft, priority 1994, dated 2002).
Read-outs that look alike come from different tables or passages of the source.

Assays:
[1] = system: patient with pronounced psoriasis; experiment: Topical application to a single patient with pronounced psoriasis, subjective symptom scores; assay type: in vivo, human; settings: after a 6-week application
Procedure: The effect of the topical application of a combination according to the invention to a single patient with pronounced psoriasis was studied in a parallel comparison. For this purpose the test substances pentoxifylline and diltiazem, dissolved in 30 ml of polypropylene glycol/ethanol/water (1:1:1. v/v), were incorporated, individually or together, in a final concentration of 2% (pentoxifylline) or 1% (diltiazem), into a commercially available creamy skin care product (Nivea lotion), ultimately giving the following 4 different formulations:
A) lotion without test substance (=vehicle control)
B) lotion with 2% of pentoxifylline
C) lotion with 1% of diltiazem
D) lotion with 2% of pentoxifylline+1% of diltiazem
Twice a day for 6 weeks, these 4 formulations were applied locally, with rubbing, to areas of skin on the patient's trunk which were affected by pronounced symptoms of psoriasis and had previously been precisely defined, particular care being taken to ensure that the same formulation was always applied to the same area of skin. The therapeutic result was monitored visually and evaluated by means of the following subjective scores: […]

[2] = system: PHA-induced release of TNFα from peripheral blood mononuclear cells; experiment: Inhibition of PHA-induced release of TNFα from PBMC (L929 cytotoxicity read-out); assay type: cell-based; settings: Homo sapiens
Procedure: (§1) For all the in vitro tests, peripheral blood mononuclear cells (PBMC) were obtained from the blood of healthy donors by density gradient centrifugation in Ficoll-Hypaque (Pharmacia, Uppsala). This isolation step separated monocytes and lymphocytes from the other blood constituents. Further working-up of this PBMC fraction was carried out in accordance Ad with the requirements of the test preparations described below.
(§2) The resulting PBMC were incubated on microtiter plates together with phythemagglutinin (PHA, 5 μg/ml). […] Incubation was carried out at 37° C. in 5% CO2 with protection from the light. After 20 hours (h) (TNFα determination), 24 h (IL-2 determination) or 120 h (IFNγ determination), the cell supernatants were tested for cytokine release. TNFα was determined via its cytotoxicity to L929 cells, IL-2 was quantified via the proliferation of CTL-L6 cells and IFNγ was determined using a sandwich ELISA.
The following test examined the dependence of the inhibition of PHA-induced cytokine formation on the type of so-called “calcium antagonist” added.

[3] = system: T lymphocytes stimulated via CD3/PMA; experiment: T lymphocyte proliferation (3H-thymidine), stimulation via CD3/PMA; assay type: cell-based; settings: Homo sapiens, 72 h
Procedure: as §1
(§3) The PBMC fraction was further fractionated to give pure T lymphocytes. This was done using Lympho-KWIK-T, a mixture of monoclonal antibodies from anti-monocytes and anti-B cells and complement, together with a mixture of monoclonal anti-NK and anti-monocyte antibodies with Leu 11 b (anti-CD16, IgM) and Leu 7 (anti-CD57, IgM) (One Lambda Inc., Los Angeles, Calif., USA). The isolation and purification of the T lymphocytes from the PBMC fraction was effected by means of the following process steps:
(§4) Monocytes are removed by cold agglutination.
30×10^6 of the cells obtained are incubated with 0.8 ml of Lympho-KWIK-T for 1 hour at 37° C. […]
After 64 h of incubation the cells were treated in each case with 1 μCi of ^3H-thymidine; 8 h later they were collected on glass fiber filters and the incorporated radioactivity was measured in a β counter. […]

[4] = system: T lymphocytes stimulated via CD28/PMA; experiment: T lymphocyte proliferation (3H-thymidine), stimulation via CD28/PMA; assay type: cell-based, human
Procedure: as §1, §3, §4
30×10^6 of the cells obtained are incubated with 0.8 ml of Lympho-KWIK-T for 1 hour at 37° C.
The cells are washed three times and then incubated for 30 minutes at 4° C. with the mixture of monoclonal anti-NK and anti-monocyte antibodies.
The cells are washed once and re-incubated with 0.8 ml of Lympho-KWIK-T for 1 hour at 37° C.
After 64 h of incubation the cells were treated in each case with 1 μCi of ^3H-thymidine; 8 h later they were collected on glass fiber filters and the incorporated radioactivity was measured in a β counter.
The percentage inhibition of the T lymphocyte proliferation by the test substances was compared with a control not containing test substance, subtracting a basal value without monoclonal antibodies. The mean value from 4 parallel preparations was used for the evaluation.

[5] = system: PHA-induced release of IL-2 from peripheral blood mononuclear cells; experiment: Inhibition of PHA-induced release of IL-2 from PBMC (CTL-L6 proliferation read-out); assay type: cell-based; settings: Homo sapiens
Procedure: as §1, §2

[6] = system: PHA-induced release of IFNγ from peripheral blood mononuclear cells; experiment: Inhibition of PHA-induced release of IFNγ from PBMC (sandwich ELISA); assay type: cell-based; settings: Homo sapiens, PHA 5 μg/ml, 120 h
Procedure: as §1, §2

Row | SMILES | psoriasis symptoms relative to the initial situation, in words [1] | inhibition at 10 µM ([2]; Table 2, test substance alone, 10 μmol/l, read-out: percentage inhibition of the PHA-induced release of TNFα, test substance alone) | inhibition at 0.1 µM ([3]; 0.1 μmol/l) | inhibition at 0.1 µM ([2]; 0.1 μmol/l final concentration, PHA 5 μg/ml, 20 h) | inhibition at 0.1 µM ([4]; Homo sapiens, T-lymphocyte, 0.1 μmol/l, T lymphocytes, 72 h) | activity on T lymphocyte activation via the CD28-dependent mechanism, in words ([4]; single substance, stimulation via CD28) | inhibition at 0.1 µM ([5]; read-out: IL-2 % inhibition, 0.1 μmol/l final concentration, PHA 5 μg/ml, 24 h) | inhibition at 0.1 µM ([6]; 0.1 μmol/l final concentration) | inhibition at 40 µM ([3]; 40 μmol/l) | inhibition at 50 µM ([2]; 50 μmol/l final concentration, PHA 5 μg/ml, 20 h, read-out: TNFα % inhibition) | inhibition at 50 µM ([2]; Table 2, pentoxifylline alone, 50 μmol/l, read-out: percentage inhibition of the PHA-induced release of TNFα, pentoxifylline) | inhibition at 40 µM ([4]; Homo sapiens, T-lymphocyte, 40 μmol/l, T lymphocytes, 72 h) | inhibition at 50 µM ([5]; read-out: IL-2 % inhibition, 50 μmol/l final concentration, PHA 5 μg/ml, 24 h) | inhibition at 50 µM ([6]; 50 μmol/l final concentration)
1 | COc1ccc([C@@H]2Sc3ccccc3N(CCN(C)C)C(=O)[C@@H]2OC(C)=O)cc1 [Diltiazem, diltiazem] | practically no visible difference | 39 ± 13% |  |  |  |  |  |  |  |  |  |  |  | 
2 | CCCC(=O)Nc1ncnc2c1ncn2[C@@H]1O[C@@H]2COP(=O)(O)O[C@H]2[C@H]1OC(=O)CCC [db-cAMP, dibutyryl-cAMP] |  |  | 16 ± 6% | 31 ± 13% | 11 ± 6% | practically inactive | 12 ± 4% | 15 ± 8% |  |  |  |  |  | 
3 | CC(=O)CCCCn1c(=O)c2c(ncn2C)n(C)c1=O [pentoxifylline] | improved only moderately |  |  |  |  |  |  |  | 21 ± 7% | 28 ± 10% | 28 ± 10% | 28 ± 8% | 14 ± 9% | 20 ± 9%
